# Experimental data taken from patent US7214792B2 (priority 1999, dated 2007).
# Tested on: LAB-1
# Test: Antibiotic sensitivity testing of LAB-1
# Assay type: cell-based
# Details: LAB-1 organism
# Method: A variety of biochemical tests were performed in order to identify the species and the genus of organism. The tests included: assessment of growth conditions, culture appearance, cell appearance and staining characteristics, optimal temperature and pH growth range, oxygen requirements, antibiotic sensitivity testing, tests for catalase and oxidase (using TAXOS N ? disks), amino acid utilization as carbon source, nitrogen fixation, motility test, and a variety of commercially available tests from MICRO-ID ? , OXYFERM ? , ENTEROTUBE ? and BIOLOG GN MICROPLATE ? .
row,Compound,Antibiotic Susceptibility Results
1,Neomycin,sensitive
2,CC1(C)S[C@@H]2[C@H](NC(=O)[C@H](N)c3ccccc3)C(=O)N2[C@H]1C(=O)O [Ampicillin],resistant
3,CO[C@@H]1[C@@H](OC(N)=O)[C@@H](O)[C@H](Oc2ccc3c(O)c(NC(=O)c4ccc(O)c(CC=C(C)C)c4)c(=O)oc3c2C)OC1(C)C [Novobiocin],sensitive
4,[H]/N=C(/N)N[C@H]1[C@H](O)[C@@H](O)[C@H](O[C@@H]2O[C@@H](C)[C@](O)(C=O)[C@H]2O[C@@H]2O[C@@H](CO)[C@H](O)[C@@H](O)[C@@H]2NC)[C@@H](N/C(N)=N\[H])[C@@H]1O [Streptomycin],resistant
5,NCC[C@H](O)C(=O)N[C@@H]1C[C@H](N)[C@@H](O[C@H]2O[C@H](CN)[C@@H](O)[C@H](O)[C@H]2O)[C@H](O)[C@H]1O[C@H]1O[C@H](CO)[C@@H](O)[C@H](N)[C@H]1O [Amikacin],sensitive
6,Polymyxin B,sensitive
7,CC[C@H]1OC(=O)[C@H](C)[C@@H](O[C@H]2C[C@@](C)(OC)[C@@H](O)[C@H](C)O2)[C@H](C)[C@@H](O[C@@H]2O[C@H](C)C[C@H](N(C)C)[C@H]2O)[C@](C)(O)C[C@@H](C)C(=O)[C@H](C)[C@@H](O)[C@]1(C)O [Erythromycin],resistant
8,Penicillin,resistant
